The source of these data is patent publication US20240217967A1, “INDOLINE DERIVATIVES AS DDRS INHIBITORS” (CHIESI FARMACEUTICI S.P.A., priority 2021, published 2024).

Usually Ki stands for the dissociation constant of the complex between target and ligand, obtained from inhibition or displacement. What is called IC50 is the midpoint of a concentration-inhibition curve.

Structures are written as SMILES.

For experiment [1], the target named is T1, DDR1 (Homo sapiens, UniProt Q08345). As to the kind of experiment: DDR1 LanthaScreen Europium Kinase Binding assay. Conditions: binding affinity; IC50 converted in Ki using Cheng-Prusoff; read-out: Ki DDR1. The procedure, abridged: (§1)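 Binding by TR-FRET tracer displacement: compounds incubated 1 h at room temperature with 5 nM DDR1 plus 20 nM Kinase Tracer 178, or 5 nM DDR2 plus 10 nM tracer, and 2 nM Eu anti-GST antibody in pH 7.5 HEPES/MgCl2/EGTA/BRIJ35 buffer. 665/615 nm ratio gave four-parameter IC50, converted to Ki via Cheng-Prusoff.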
T1 sequence (Q08345 19-913): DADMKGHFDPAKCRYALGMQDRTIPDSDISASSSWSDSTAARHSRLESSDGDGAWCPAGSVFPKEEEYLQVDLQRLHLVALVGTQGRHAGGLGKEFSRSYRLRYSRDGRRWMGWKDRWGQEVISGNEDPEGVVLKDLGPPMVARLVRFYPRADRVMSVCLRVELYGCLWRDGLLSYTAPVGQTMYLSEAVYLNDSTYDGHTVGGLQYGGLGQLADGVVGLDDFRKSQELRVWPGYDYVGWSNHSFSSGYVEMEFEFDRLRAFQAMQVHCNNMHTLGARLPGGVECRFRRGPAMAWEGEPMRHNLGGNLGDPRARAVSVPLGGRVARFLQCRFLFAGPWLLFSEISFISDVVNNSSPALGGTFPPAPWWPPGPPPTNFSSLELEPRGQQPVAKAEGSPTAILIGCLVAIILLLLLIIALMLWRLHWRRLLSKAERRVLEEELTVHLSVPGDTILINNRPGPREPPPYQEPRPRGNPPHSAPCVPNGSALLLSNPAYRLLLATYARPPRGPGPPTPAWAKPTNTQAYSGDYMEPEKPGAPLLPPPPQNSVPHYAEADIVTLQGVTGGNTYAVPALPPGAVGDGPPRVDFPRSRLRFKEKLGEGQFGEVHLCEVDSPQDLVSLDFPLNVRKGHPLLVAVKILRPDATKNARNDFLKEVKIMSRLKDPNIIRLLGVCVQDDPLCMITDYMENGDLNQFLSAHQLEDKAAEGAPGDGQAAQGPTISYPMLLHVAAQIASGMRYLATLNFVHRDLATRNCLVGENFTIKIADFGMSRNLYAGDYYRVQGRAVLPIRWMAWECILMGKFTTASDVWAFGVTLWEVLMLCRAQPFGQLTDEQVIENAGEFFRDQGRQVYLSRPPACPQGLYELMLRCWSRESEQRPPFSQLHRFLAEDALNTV
(Time-resolved FRET reads energy transfer from a long-lived donor to a nearby acceptor.)

Experiment [2] concerns the target T2, DDR2 (Homo sapiens, UniProt Q16832).
T2 sequence (Q16832 22-855): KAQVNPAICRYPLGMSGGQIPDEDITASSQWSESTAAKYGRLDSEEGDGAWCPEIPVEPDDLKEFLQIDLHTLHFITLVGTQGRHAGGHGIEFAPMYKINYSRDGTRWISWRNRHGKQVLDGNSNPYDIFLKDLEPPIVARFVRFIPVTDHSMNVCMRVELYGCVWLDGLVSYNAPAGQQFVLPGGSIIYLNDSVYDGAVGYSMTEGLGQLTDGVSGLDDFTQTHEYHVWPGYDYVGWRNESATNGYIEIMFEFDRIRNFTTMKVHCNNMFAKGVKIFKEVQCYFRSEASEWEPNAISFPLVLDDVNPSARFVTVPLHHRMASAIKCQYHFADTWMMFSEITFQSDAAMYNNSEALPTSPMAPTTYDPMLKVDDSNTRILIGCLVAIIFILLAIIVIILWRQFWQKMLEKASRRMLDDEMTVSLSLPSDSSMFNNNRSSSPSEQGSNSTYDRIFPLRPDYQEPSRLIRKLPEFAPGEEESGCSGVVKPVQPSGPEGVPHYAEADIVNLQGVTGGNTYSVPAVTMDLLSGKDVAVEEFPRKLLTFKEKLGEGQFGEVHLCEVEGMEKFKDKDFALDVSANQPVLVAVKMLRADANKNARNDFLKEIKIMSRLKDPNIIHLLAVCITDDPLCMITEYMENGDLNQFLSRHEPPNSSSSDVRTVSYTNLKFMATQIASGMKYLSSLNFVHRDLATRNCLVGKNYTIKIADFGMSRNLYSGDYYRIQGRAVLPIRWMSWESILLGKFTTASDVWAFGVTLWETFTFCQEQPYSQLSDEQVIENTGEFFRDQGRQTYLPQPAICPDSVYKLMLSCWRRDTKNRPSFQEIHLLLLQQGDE
As to the kind of experiment: DDR2 LanthaScreen Europium Kinase Binding assay. As to conditions: binding affinity; IC50 converted in Ki using Cheng-Prusoff; read-out: Ki DDR2. A digest of the protocol: as §1

The target of experiment [3] is T1, DDR1. As to the kind of experiment: DDR1 cell based assay (PathHunter U2OS DDR1, collagen II stimulation). Conditions: U2OS-DDR1 cells, bovine Type II Collagen stimulation. A digest of the protocol: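 Receptor activation measured by enzyme-fragment complementation luminescence in engineered U2OS cells. Compound added 30 min before overnight challenge with 20 μg/ml bovine collagen II; data scaled between vehicle and collagen-stimulated controls, IC50 derived by four-parameter variable-slope fitting.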

For experiment [4], the target named is T2, DDR2. As to the kind of experiment: DDR2 cell based assay (phospho-ELISA in HEK293T-DDR2 recombinant cells, collagen II stimulation). As to conditions: bovine Type II Collagen stimulation. As to the method: The inhibition of DDR2 phosphorylation by compounds was evaluated in HEK293T-DDR2 recombinant cells by phospho-ELISA assay. Briefly, HEK293T-DDR2 cells were seeded in poly-D-lysine-coated 24-well plates at a density of 250.000 cells/well and incubated for 1.5 hours at 37° C. and 5% CO2 in DMEM+10% FBS. After that, the medium was changed to serum-free DMEM and cells were incubated for 3 hours. Then. test compounds were added at different concentrations 30 minutes before stimulation with bovine Type II Collagen at 50 μg/ml for further 3 hours. For DDR2 phospho-ELISA assay (DuoSet IC Human Phospho-DDR2; R&D Systems), protein extracts were obtained by adding 60 μl/well of lysis buffer prepared according to the manufacturer's instructions. Protein concentration in the samples was determined by BCA assay and the levels of phospho-DDR2 were determined following R&D Systems indications. Raw data were normalized to maximal inhibition control (0% for normalization) and positive control (100% for normalization; cells treated with […] collagen II) and IC50 parameters were calculated in GraphPad Prism 8.0 software, using sigmoidal dose-response curve fitting with variable slope.
A general note: In an ELISA, binding on a coated surface is turned into a signal by an enzyme label.

Regarding `Cc1cn(-c2cc(NC(=O)c3ccc4c(c3)N(Cc3cnc5[nH]ccc5c3)CC4)cc(C(F)(F)F)c2)cn1` [Example 2, 1-((1H-pyrrolo[2,3-b]pyridin-5-yl)methyl)-N-(3-(4-methyl-1H-imidazol-1-yl)-5-(trifluoromethyl)phenyl)indoline-6-carboxamide], the Ki at DDR1 [1] and at DDR2 [2] was below 25 nM throughout. Besides, the IC50 against DDR1 [3] and on DDR2 [4] was below 25 nM each time.

For `CC(C)(c1cc(NC(=O)c2ccc3c(c2)N(Cc2cnc4[nH]ncc4c2)CC3)no1)C(F)(F)F` [Example 36, 1-((1H-pyrazolo[3,4-b]pyridin-5-yl)methyl)-N-(5-(1,1,1-trifluoro-2-methylpropan-2-yl)isoxazol-3-yl)indoline-6-carboxamide], the Ki at DDR1 [1] and at DDR2 [2] was below 25 nM each time. The 50% inhibitory concentration (IC50) against DDR1 [3] was below 25 nM; on DDR2 [4] it was 50 to 80 nM.

`Cc1cn(-c2cc(C(=O)Nc3ccc4c(c3)N(Cc3cnc5[nH]ncc5c3)CC4)cc(C(F)(F)F)c2)cn1` [Example 38, N-(1-((1H-pyrazolo[3,4-b]pyridin-5-yl)methyl)indolin-6-yl)-3-(4-methyl-1H-imidazol-1-yl)-5-(trifluoromethyl)benzamide]: the Ki on DDR1 [1] and on DDR2 [2] was below 25 nM throughout. Besides, the IC50 on DDR1 [3] was below 25 nM; at DDR2 [4], 50 to 80 nM.

For `Cc1n[nH]c2ncc(CN3CCc4ccc(C(=O)Nc5cc(C(C)(C)C)no5)cc43)cc12` [Example 80, N-(3-(tert-butyl)isoxazol-5-yl)-1-((3-methyl-1H-pyrazolo[3,4-b]pyridin-5-yl)methyl)indoline-6-carboxamide], the Ki on DDR1 [1] and at DDR2 [2] was below 25 nM throughout. Moreover, the concentration for half-maximal inhibition (IC50) against DDR1 [3] and on DDR2 [4] was below 25 nM throughout.

For `Cc1cn(-c2cc(NC(=O)c3ccc4c(c3)N(Cc3cnc5ccccn35)CC4)cc(C(F)(F)F)c2)cn1` [Example 1, 1-(imidazo[1,2-a]pyridin-3-ylmethyl)-N-(3-(4-methyl-1H-imidazol-1-yl)-5-(trifluoromethyl)phenyl)indoline-6-carboxamide], the Ki at DDR1 [1] and at DDR2 [2] was below 25 nM each time. Also, the figures for the IC50 against DDR1 [3] and on DDR2 [4] were below 25 nM and 50 to 80 nM, respectively.

Consider `O=C(Nc1cc(F)cc(C(F)(F)F)c1)c1ccc2c(c1)N(Cc1cnc3[nH]ncc3c1)CC2` [Example 39, 1-((1H-pyrazolo[3,4-b]pyridin-5-yl)methyl)-N-(3-fluoro-5-(trifluoromethyl)phenyl)indoline-6-carboxamide], for which the Ki at DDR1 [1] was 25 to 50 nM; at DDR2 [2] it was below 25 nM. Also, the IC50 against DDR1 [3] was below 25 nM; at DDR2 [4], 25 to 50 nM.
